How the values were obtained:
ACTL8_C197 = target: T1, ACTL8_C197 (Homo sapiens, UniProt Q9H568); assay: IA-DTB cysteine engagement; format: binding; conditions: 22Rv1 cells, 20 μM probe, 1 h, relative to DMSO
T1 construct: endogenous in cells; host or cells: 22Rv1
T1 sequence (Q9H568 1-366): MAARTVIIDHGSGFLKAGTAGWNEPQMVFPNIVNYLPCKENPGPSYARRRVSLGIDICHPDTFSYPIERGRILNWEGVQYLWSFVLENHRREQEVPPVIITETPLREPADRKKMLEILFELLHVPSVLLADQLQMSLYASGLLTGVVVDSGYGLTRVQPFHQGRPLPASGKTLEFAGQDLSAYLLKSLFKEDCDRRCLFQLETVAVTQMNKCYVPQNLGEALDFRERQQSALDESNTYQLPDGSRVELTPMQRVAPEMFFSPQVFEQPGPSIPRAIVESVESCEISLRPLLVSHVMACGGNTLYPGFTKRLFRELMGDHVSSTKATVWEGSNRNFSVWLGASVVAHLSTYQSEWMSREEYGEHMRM
Procedure, shortened: (§1)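 Read-out is TMT-based cysteine engagement, expressed as each reporter ion intensity divided by the average of the DMSO channels. Before that, probe-treated cell lysates were capped with IA-DTB, digested, enriched on streptavidin and TMT-tagged. PSMs with DMSO summed intensity <10,000 or DMSO CV >0.5 were excluded.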

RTN4_C1101 = target: T2, RTN4_C1101 (Homo sapiens, UniProt Q9NQC3); assay: IA-DTB cysteine engagement; format: binding; conditions: 22Rv1 cells, 20 μM probe, 1 h, relative to DMSO
T2 construct: endogenous in cells; host or cells: 22Rv1
T2 sequence (Q9NQC3 1-1192): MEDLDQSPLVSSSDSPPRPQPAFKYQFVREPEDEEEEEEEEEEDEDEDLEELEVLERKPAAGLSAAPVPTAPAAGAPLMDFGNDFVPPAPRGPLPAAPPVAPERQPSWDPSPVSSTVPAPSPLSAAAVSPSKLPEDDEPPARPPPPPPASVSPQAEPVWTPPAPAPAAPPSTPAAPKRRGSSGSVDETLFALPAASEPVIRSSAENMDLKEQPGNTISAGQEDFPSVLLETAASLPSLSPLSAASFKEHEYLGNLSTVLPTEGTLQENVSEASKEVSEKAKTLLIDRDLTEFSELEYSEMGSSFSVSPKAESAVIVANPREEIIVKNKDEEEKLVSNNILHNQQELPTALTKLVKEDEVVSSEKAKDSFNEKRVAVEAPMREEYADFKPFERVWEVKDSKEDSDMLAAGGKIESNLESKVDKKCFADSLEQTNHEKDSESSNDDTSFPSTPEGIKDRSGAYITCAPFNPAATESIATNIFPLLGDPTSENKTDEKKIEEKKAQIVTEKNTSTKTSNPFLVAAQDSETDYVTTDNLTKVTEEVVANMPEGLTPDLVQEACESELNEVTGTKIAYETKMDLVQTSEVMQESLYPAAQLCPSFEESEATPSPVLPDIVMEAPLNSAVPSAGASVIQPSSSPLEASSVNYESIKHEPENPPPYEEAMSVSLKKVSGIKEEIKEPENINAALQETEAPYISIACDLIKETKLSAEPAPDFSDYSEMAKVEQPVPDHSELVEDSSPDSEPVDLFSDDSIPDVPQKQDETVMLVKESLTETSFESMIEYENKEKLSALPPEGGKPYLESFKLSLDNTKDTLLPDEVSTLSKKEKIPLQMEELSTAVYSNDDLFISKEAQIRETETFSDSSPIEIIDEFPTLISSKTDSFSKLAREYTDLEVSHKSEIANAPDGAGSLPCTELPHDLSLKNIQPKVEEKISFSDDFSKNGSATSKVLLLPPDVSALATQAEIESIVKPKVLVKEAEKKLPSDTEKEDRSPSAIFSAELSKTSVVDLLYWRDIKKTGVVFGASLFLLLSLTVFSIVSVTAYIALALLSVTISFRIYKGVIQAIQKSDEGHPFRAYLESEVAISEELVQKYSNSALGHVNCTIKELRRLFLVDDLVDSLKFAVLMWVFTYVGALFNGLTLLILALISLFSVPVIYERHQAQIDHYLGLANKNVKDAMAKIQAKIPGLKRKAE
Procedure, shortened: as §1

% engagement ACTL8_C197 (ACTL8_C197)	% engagement RTN4_C1101 (RTN4_C1101)	SMILES
36.75%	85%	C=CC(=O)N1C[C@H](c2ccc(Br)cc2)[C@H]1C(=O)Nc1cccc2cccnc12 [MY-3B, (2S,3S)-1-acryloyl-3-(4-bromophenyl)-N-(quinolin-8-yl)azetidine-2-carboxamide]
66.25%	87.5%	C=CC(=O)N1C[C@H](c2ccc(Br)cc2)[C@@H]1C(=O)Nc1cccc2cccnc12 [MY-1B, (2R,3S)-1-acryloyl-3-(4-bromophenyl)-N-(quinolin-8-yl)azetidine-2-carboxamide]
3.25%	91.5%	C=CC(=O)N1C[C@H](c2ccc(Br)cc2)[C@H]1C(=O)Nc1cccc2cccnc12 [MY-3A, (2S,3S)-1-acryloyl-3-(4-bromophenyl)-N-(quinolin-8-yl)azetidine-2-carboxamide]
14%	85%	C=CC(=O)N1C[C@@H](c2ccc(Br)cc2)[C@H]1C(=O)Nc1cccc2cccnc12 [MY-1A, (2S,3R)-1-acryloyl-3-(4-bromophenyl)-N-(quinolin-8-yl)azetidine-2-carboxamide]

— patent US20250034216A1, “STEREOSELECTIVE COVALENT LIGANDS FOR ONCOGENIC AND IMMUNOLOGICAL PROTEINS” (The Scripps Research Institute, priority 2021, published 2025)
